Measured values taken from ChEMBL document CHEMBL1154899, “Synthesis and biological evaluation of caffeic acid 3,4-dihydroxyphenethyl ester” (J Nat Prod, 2010).

Key:
Type in all cases: functional
SK-MEL-5 = test: Antiproliferative activity against human SK-MEL-5 cells assessed as cell growth at 0.5 uM by SRB assay; settings: read-out: Activity
U-251 = test: Antiproliferative activity against human U251 cells assessed as cell growth at 50 uM by SRB assay; settings: read-out: Activity
DU-145 [1] = test: Antiproliferative activity against human DU145 cells assessed as cell growth at 500 uM by SRB assay; settings: read-out: Activity
[2] = Antiproliferative activity against human […] cells assessed as cell growth at 500 uM by SRB assay; settings: read-out: Activity
UACC-62 = test: Antiproliferative activity against human UACC62 cells assessed as cell growth at 500 uM by SRB assay; settings: read-out: Activity
DU-145 [3] = test: Antiproliferative activity against human DU145 cells assessed as cell growth at 0.5 uM by SRB assay; settings: read-out: Activity
HL-60(TB) = test: Antiproliferative activity against human HL-60(TB) cells assessed as cell growth at 0.5 uM by SRB assay; settings: read-out: Activity
RXF 393 = test: Antiproliferative activity against human RXF393 cells by SRB assay
NCI-H226 [4] = test: Antiproliferative activity against human NCI-H226 cells assessed as cell growth at 50 uM by SRB assay; settings: read-out: Activity
HT-29 [5] = test: Antiproliferative activity against human HT-29 cells by SRB assay
T47D = test: Antiproliferative activity against human T47D cells by SRB assay
A498 = test: Antiproliferative activity against human A498 cells assessed as cell growth at 50 uM by SRB assay; settings: read-out: Activity
HCT-15 = test: Antiproliferative activity against human HCT15 cells assessed as cell growth at 0.5 uM by SRB assay; settings: read-out: Activity
CCRF-CEM = test: Antiproliferative activity against human CCRF-CEM cells assessed as cell growth at […] by SRB assay; settings: read-out: Activity
SNB-75 = test: Antiproliferative activity against human SNB75 cells by SRB assay
NCI-H226 [6] = test: Antiproliferative activity against human NCI-H226 cells by SRB assay
NCI-H322M = test: Antiproliferative activity against human NCI-H322M cells by SRB assay
[7] = Antiproliferative activity against human […] cells assessed as cell growth at 5 uM by SRB assay; settings: read-out: Activity
OVCAR-5 [8] = test: Antiproliferative activity against human OVCAR5 cells by SRB assay
OVCAR-8 = test: Antiproliferative activity against human OVCAR8 cells assessed as cell growth at 50 uM by SRB assay; settings: read-out: Activity
OVCAR-5 [9] = test: Antiproliferative activity against human OVCAR5 cells at 5 uM by SRB assay
CAKI-1 = test: Antiproliferative activity against human Caki1 cells assessed as cell growth at 5 uM by SRB assay; settings: read-out: Activity
MDA-MB-231 [10] = test: Antiproliferative activity against human MDA-MB-231 cells assessed as cell growth at 5 uM by SRB assay; settings: read-out: Activity
ACHN = test: Antiproliferative activity against human ACHN cells assessed as cell growth at 0.5 uM by SRB assay; settings: read-out: Activity
SN12C = test: Antiproliferative activity against human SN12C cells assessed as cell growth at 0.5 uM by SRB assay; settings: read-out: Activity
SR = test: Antiproliferative activity against human SR cells assessed as cell growth at 50 uM by SRB assay; settings: read-out: Activity
HOP-62 = test: Antiproliferative activity against human HOP62 cells assessed as cell growth at 50 uM by SRB assay; settings: read-out: Activity
HT-29 [11] = test: Antiproliferative activity against human HT-29 cells assessed as cell growth at 50 uM by SRB assay; settings: read-out: Activity
SW-620 = test: Antiproliferative activity against human SW620 cells assessed as cell growth at 0.5 uM by SRB assay; settings: read-out: Activity
K562 = test: Antiproliferative activity against human K562 cells by SRB assay
LOX IMVI = test: Antiproliferative activity against human LOXIMVI cells assessed as cell growth at 500 uM by SRB assay; settings: read-out: Activity
MDA-MB-435 = test: Antiproliferative activity against human MDA-MB-435 cells by SRB assay
HOP-92 = test: Antiproliferative activity against human HOP92 cells by SRB assay
MDA-MB-231 [12] = test: Antiproliferative activity against human MDA-MB-231 cells assessed as cell growth at 500 uM by SRB assay; settings: read-out: Activity
A549 = test: Antiproliferative activity against human A549 cells assessed as cell growth at 50 uM by SRB assay; settings: read-out: Activity
UO-31 = test: Antiproliferative activity against human UO31 cells assessed as cell growth at 5 mM by SRB assay; settings: read-out: Activity
NCI-H460 = test: Antiproliferative activity against human NCI-H460 cells by SRB assay
IGROV-1 = test: Antiproliferative activity against human IGROV1 cells assessed as cell growth at 0.5 uM by SRB assay; settings: read-out: Activity
[13] = read-out: LC50 (the source's name)
[14] = read-out: pLC50 (the source's name) (converted)

## O=C(/C=C/c1ccc(O)c(O)c1)OCCc1ccc(O)c(O)c1
SK-MEL-5
  growth at 0.5 µM: 97%
U-251
  growth at 50 µM: 98%
DU-145 [1]
  growth at 500 µM: 80%
[2]
  growth at 500 µM: 11%
UACC-62
  growth at 500 µM: 52%
DU-145 [3]
  growth at 0.5 µM: 102%
HL-60(TB)
  growth at 0.5 µM: 94%
RXF 393; read-out: GI50
  GI50: 15.5 µM
RXF 393; [13]
  CC50: > 50 µM
RXF 393; read-out: TGI
  TGI: > 50 µM
RXF 393; read-out: pGI50 (converted)
  GI50: 15.5 µM
RXF 393; [14]
  CC50: > 50.1 µM
RXF 393; read-out: pTGI
  TGI: > 50.1 µM
NCI-H226 [4]
  growth at 50 µM: 90%
HT-29 [5]; read-out: GI50
  GI50: 28.5 µM
HT-29 [5]; [13]
  CC50: > 50 µM
HT-29 [5]; read-out: TGI
  TGI: > 50 µM
HT-29 [5]; read-out: pGI50 (converted)
  GI50: 28.2 µM
HT-29 [5]; [14]
  CC50: > 50.1 µM
HT-29 [5]; read-out: pTGI
  TGI: > 50.1 µM
T47D; read-out: GI50
  GI50: 11.3 µM
T47D; [13]
  CC50: > 50 µM
T47D; read-out: TGI
  TGI: > 50 µM
T47D; read-out: pGI50 (converted)
  GI50: 11.2 µM
T47D; [14]
  CC50: > 50.1 µM
T47D; read-out: pTGI
  TGI: > 50.1 µM
A498
  growth at 50 µM: 95%
HCT-15
  growth at 0.5 µM: 80%
CCRF-CEM
  growth: -44%
SNB-75; read-out: GI50
  GI50: 9.5 µM
SNB-75; [13]
  CC50: > 50 µM
SNB-75; read-out: TGI
  TGI: > 50 µM
SNB-75; read-out: pGI50 (converted)
  GI50: 9.55 µM
SNB-75; [14]
  CC50: > 50.1 µM
SNB-75; read-out: pTGI
  TGI: > 50.1 µM
NCI-H226 [6]; read-out: GI50
  GI50: 13.3 µM
NCI-H226 [6]; [13]
  CC50: > 50 µM
NCI-H226 [6]; read-out: TGI
  TGI: > 50 µM
NCI-H226 [6]; read-out: pGI50 (converted)
  GI50: 13.5 µM
NCI-H226 [6]; [14]
  CC50: > 50.1 µM
NCI-H226 [6]; read-out: pTGI
  TGI: > 50.1 µM
NCI-H322M; read-out: GI50
  GI50: 28.1 µM
NCI-H322M; [13]
  CC50: > 50 µM
NCI-H322M; read-out: TGI
  TGI: > 50 µM
NCI-H322M; read-out: pGI50 (converted)
  GI50: 28.2 µM
NCI-H322M; [14]
  CC50: > 50.1 µM
NCI-H322M; read-out: pTGI
  TGI: > 50.1 µM
[7]
  growth at 5 µM: 70%
OVCAR-5 [8]; read-out: GI50
  GI50: > 50 µM
OVCAR-5 [8]; [13]
  CC50: > 50 µM
OVCAR-5 [8]; read-out: TGI
  TGI: > 50 µM
OVCAR-5 [8]; read-out: pGI50 (converted)
  GI50: > 50.1 µM
OVCAR-5 [8]; [14]
  CC50: > 50.1 µM
OVCAR-5 [8]; read-out: pTGI
  TGI: > 50.1 µM
OVCAR-8
  growth at 50 µM: 78%
OVCAR-5 [9]
  Activity: 89%
CAKI-1
  growth at 5 µM: 83%
MDA-MB-231 [10]
  growth at 5 µM: 108%
ACHN
  growth at 0.5 µM: 98%
SN12C
  growth at 0.5 µM: 74%
SR
  growth at 50 µM: 77%
HOP-62
  growth at 50 µM: 97%
HT-29 [11]
  growth at 50 µM: 98%
SW-620
  growth at 0.5 µM: 98%
K562; read-out: GI50
  GI50: 1.56 µM
K562; [13]
  CC50: > 50 µM
K562; read-out: TGI
  TGI: 19.9 µM
K562; read-out: pGI50 (converted)
  GI50: 1.55 µM
K562; [14]
  CC50: > 50.1 µM
K562; read-out: pTGI (converted)
  TGI: 20 µM
LOX IMVI
  growth at 500 µM: 57%
MDA-MB-435; read-out: GI50
  GI50: 4.01 µM
MDA-MB-435; [13]
  CC50: > 50 µM
MDA-MB-435; read-out: TGI
  TGI: > 50 µM
MDA-MB-435; read-out: pGI50 (converted)
  GI50: 3.98 µM
MDA-MB-435; [14]
  CC50: > 50.1 µM
MDA-MB-435; read-out: pTGI
  TGI: > 50.1 µM
HOP-92; read-out: GI50
  GI50: 0.79 µM
HOP-92; [13]
  CC50: > 50 µM
HOP-92; read-out: TGI
  TGI: 16.8 µM
HOP-92; read-out: pGI50 (converted)
  GI50: 0.794 µM
HOP-92; [14]
  CC50: > 50.1 µM
HOP-92; read-out: pTGI (converted)
  TGI: 17 µM
MDA-MB-231 [12]
  growth at 500 µM: 85%
A549
  growth at 50 µM: 101%
UO-31
  growth at 5000 µM: -14%
NCI-H460
  GI50: 14.8 µM
NCI-H460; [13]
  CC50: > 50 µM
NCI-H460; read-out: TGI
  TGI: > 50 µM
NCI-H460; [14]
  CC50: > 50.1 µM
NCI-H460; read-out: pTGI
  TGI: > 50.1 µM
IGROV-1
  growth at 0.5 µM: 112%
